{"source": "patent US20230372333A1", "about": "“COMBINATION THERAPY FOR TREATING CANCER” (ASTRAZENECA AB, priority 2020, published 2023)", "key": {"HBCx-9": {"test_system": "HBCx-9", "conditions": "HBCx-9 TNBC PDX model, reference [2]; cited from earlier work"}, "[1]": {"test_system": "HBCx-9 patient-derived explant model", "assay": "Anti-tumour efficacy of AZD5305, carboplatin and combination in HBCx-9 PDX model (Example 2)", "format": "in vivo", "conditions": "carboplatin 50 mg/kg IP QW, 28 days, Nude female mice", "source_text": "HBCx-9 is a patient-derived tumour explant (PDX) model established in XenTech without prior in vitro culture. Tumour fragments were transplanted subcutaneously (SC) onto donor mice. When tumour volume reached 700 to 1764 mm^3, donor mice were sacrificed, and tumours were aseptically excised and dissected. After removing necrotic areas, tumours were cut into fragments measuring approximately 20 mm^3 and transferred in culture medium before grafting SC into the recipient (experimental) Nude female mice. Tumours were measured (length×width) two times weekly by bilateral Vernier calliper measurements and tumour volume was calculated using elliptical formula (π/6×width×width×length). Animal bodyweight and tumour condition were monitored throughout the study. Mice were randomised into treatment groups when mean tumour volume reached approximately 100 mm^3. Animals were treated from the day after the randomisation. […]\nTumour growth inhibition from start of treatment was assessed by comparison of the mean change in tumour volume of the control and treated groups and represented as percent tumour growth inhibition (TGI, when TV≤starting TV) or regression (reg, when TV<starting TV). Mean percent body weight change from start of treatment was also calculated for all the groups. Statistical significance was evaluated using a one-tailed t test. […]"}, "SUM149PT xenograft model": {"test_system": "SUM149PT xenograft model", "assay": "Anti-tumour efficacy of AZD5305, carboplatin and combination in SUM149PT xenograft model (Example 3)", "format": "in vivo, mice", "conditions": "AZD5305 0.01 mg/kg PO QD, 28 days", "protocol": "SUM149PT cells (2×10^6) were implanted with 50% Matrigel into mammary fat pad (MFP) of female SCID mice (weight greater than 18 g). Tumours were measured (length×width) two times weekly by bilateral Vernier calliper measurements and tumour volume was calculated using elliptical formula (π/6×width×width×length). Animal bodyweight and tumour condition were monitored throughout the studies. Mice were randomised into treatment groups when mean tumour volume reached approximately 0.3 cm^3. Animals were treated from the day after the randomisation. Control animals were treated orally (PO) once daily (QD) with vehicle (deionised water acidified with HCl to pH 3.5-4) and intraperitoneally (IP) once weekly (QW) with PBS. AZD5305 was dosed PO QD at 0.1, 0.03 or 0.01 mg/kg. Carboplatin was dosed IP once weekly (QW) at 37.5 mg/kg. In the combination group, mice were dosed with carboplatin first, followed by AZD5305 administration within 10 minutes.\nTumour growth inhibition from start of treatment was assessed by comparison of the mean change in tumour volume of the control and treated groups and represented as percent tumour growth inhibition (TGI, when TV≥starting TV) or regression (reg, when TV<starting TV). Mean percent body weight change from start of treatment was also calculated for all the groups. Statistical significance was evaluated using a one-tailed t test. […]"}}, "note": "“Also recorded” adds a separate entry of the source."}
{"smiles": "O=C(c1cc(Cc2n[nH]c(=O)c3ccccc23)ccc1F)N1CCN(C(=O)C2CC2)CC1", "note": "[olaparib]", "values": [{"measurement": "sensitivity of HBCx-9 to monotherapy", "setting": "HBCx-9", "result": "moderate sensitivity"}]}
{"smiles": "N.N.O=C([O-])C1(C(=O)[O-])CCC1.[Pt+2]", "note": "[Carboplatin, carboplatin]", "values": [{"measurement": "Tumour Growth Inhibition/Regression (end of treatment): TGI", "setting": "[1]", "result": "88% TGI *** (p ≤ 0.001)"}, {"measurement": "Tumour Growth Inhibition/Regression (end of treatment): TGI", "setting": "[1]; listed as carboplatin", "result": 88, "unit": "%"}]}
{"smiles": "CCc1cc2ncc(CN3CCN(c4ccc(C(=O)NC)nc4)CC3)cc2[nH]c1=O", "note": "[AZD5305, 5-[4-[(7-ethyl-6-oxo-5H-1,5-naphthyridin-3-yl)methyl]piperazin-1-yl]-N-methyl-pyridine-2-carboxamide]", "values": [{"measurement": "Tumour Growth Inhibition/Regression (end of treatment)", "setting": "SUM149PT xenograft model", "result": "did not inhibit tumour growth; also recorded: No TGI or regression"}]}
